Patent US8993542B2, “Methods of treating viral infections” (priority 2008, dated 2015)

Assays:
HIV = assay: microbe, parasite or virus in culture; format: cell-based
HIV-1IIIB = assay: Two-drug combination antiviral assay in CEM cells (CPE), MacSynergy II; format: cell-based; conditions: for Antagonism Volume, Result 1 / Antagonism Volume, Result 2 / Antagonism Volume, Result 3 / Mean Antagonism Volume (n = 3) / Mean Synergy Volume (n = 3) / Synergy Volume, Result 1 / Synergy Volume, Result 2 / Synergy Volume, Result 3: in combination with CMX157, CEM-SS cells, 95% confidence
[1] = Human immunodeficiency virus 1, PANEL 2, WT
[2] = Human immunodeficiency virus 1, PANEL 3, 6 TAMs, no 184
[3] = Human immunodeficiency virus 1, PANEL 6, 6 TAMs + 184
[4] = Human immunodeficiency virus 1, PANEL 7, 184V
[5] = Human immunodeficiency virus 1, PANEL 9, 69ins, no 184
[6] = Human immunodeficiency virus 1, PANEL 12, 69ins + 184
[7] = Human immunodeficiency virus 1, PANEL 14, 65R, no 184
[8] = Human immunodeficiency virus 1, PANEL 15, 65R + 184V
[9] = Human immunodeficiency virus 1, PANEL 17, L74V
[10] = Human immunodeficiency virus 1, PANEL 19, L74V + M184V
[11] = Human immunodeficiency virus 1, PANEL 26, 151M, no 184
[12] = Human immunodeficiency virus 1, PANEL 28, 151M + 184
[13] = Human immunodeficiency virus 1, PANEL 29, L74V − SDM
[14] = Human immunodeficiency virus 1, PANEL 30, M184V − SDM
[15] = Human immunodeficiency virus 1, PANEL 31, K65R − SDM
[16] = Human immunodeficiency virus 1, PANEL 33, T215Y
[17] = Human immunodeficiency virus 1, PANEL 34, T215Y + M184V
[18] = Human immunodeficiency virus 1, PANEL 35, M41L + T215Y
[19] = Human immunodeficiency virus 1, PANEL 37, M41L + T215Y + M184V
[20] = Human immunodeficiency virus 1, PANEL 38, M41L + L210W + T215Y
[21] = Human immunodeficiency virus 1, PANEL 39, M41L + L210W + T215Y
[22] = Human immunodeficiency virus 1, PANEL 40, M41L + L210W + T215Y + M184V
[23] = Human immunodeficiency virus 1, PANEL 41, M41L + L210W + T215Y + M184V
[24] = Human immunodeficiency virus 1, PANEL 42, D67N + K70R
[25] = Human immunodeficiency virus 1, PANEL 44, D67N + K70R + T215F + K219E + M184V
[26] = Human immunodeficiency virus 1, PANEL 45, L210W + T215Y
[27] = Human immunodeficiency virus 1, PANEL 46, D67N + K70E
[28] = Human immunodeficiency virus 1, PANEL 47, D67N + K70E + M184V
[29] = Human immunodeficiency virus 1, PANEL 48, K70E + M184V

Nc1nc(=O)n(C2CSC(CO)O2)cc1F (stereo not shown) [FTC, 2-hydroxymethyl-5-(5-fluorocytosin-1-yl)-1,3-oxathiolane]
IC50 (HIV; Human immunodeficiency virus 1, PANEL 1, WT): 890 nM
IC50 (HIV; [1]): 1570 nM
IC50 (HIV; [2]): 5730 nM
IC50 (HIV; [3]): > 100000 nM
IC50 (HIV; [4]): > 100000 nM
IC50 (HIV; [5]): 29600 nM
IC50 (HIV; [6]): > 100000 nM
IC50 (HIV; [7]): 19300 nM
IC50 (HIV; [8]): > 100000 nM
IC50 (HIV; [9]): 2140 nM
IC50 (HIV; [10]): > 100000 nM
IC50 (HIV; [11]): 34700 nM
IC50 (HIV; [12]): > 100000 nM
IC50 (HIV; [13]): 1680 nM
IC50 (HIV; [14]): > 100000 nM
IC50 (HIV; [15]): 12900 nM
IC50 (HIV; [16]): 2640 nM
IC50 (HIV; [17]): > 100000 nM
IC50 (HIV; [18]): 3130 nM
IC50 (HIV; [19]): > 100000 nM
IC50 (HIV; [20]): 4220 nM
IC50 (HIV; [21]): 2160 nM
IC50 (HIV; [22]): > 100000 nM
IC50 (HIV; [23]): > 100000 nM
IC50 (HIV; [24]): 3280 nM
IC50 (HIV; [25]): > 100000 nM
IC50 (HIV; [26]): 2620 nM
IC50 (HIV; [27]): 3390 nM
IC50 (HIV; [28]): > 100000 nM
IC50 (HIV; [29]): > 100000 nM
IC50 Fold Change (HIV; PANEL 1, WT): 0.78
IC50 Fold Change (HIV; PANEL 2, WT): 1.38
IC50 Fold Change (HIV; PANEL 3, 6 TAMs, no 184): 5.02
IC50 Fold Change (HIV; PANEL 6, 6 TAMs + 184): >87.6048
IC50 Fold Change (HIV; PANEL 7, 184V): >87.6048
IC50 Fold Change (HIV; PANEL 9, 69ins, no 184): 26.00
IC50 Fold Change (HIV; PANEL 12, 69ins + 184): >87.6048
IC50 Fold Change (HIV; PANEL 14, 65R, no 184): 17.00
IC50 Fold Change (HIV; PANEL 15, 65R + 184V): >87.6048
IC50 Fold Change (HIV; PANEL 17, L74V): 1.87
IC50 Fold Change (HIV; PANEL 19, L74V + M184V): >87.6048
IC50 Fold Change (HIV; PANEL 26, 151M, no 184): 30.00
IC50 Fold Change (HIV; PANEL 28, 151M + 184): >87.6048
IC50 Fold Change (HIV; PANEL 29, L74V − SDM): 1.47
IC50 Fold Change (HIV; PANEL 30, M184V − SDM): >87.6048
IC50 Fold Change (HIV; PANEL 31, K65R − SDM): 11.00
IC50 Fold Change (HIV; PANEL 33, T215Y): 2.31
IC50 Fold Change (HIV; PANEL 34, T215Y + M184V): >87.6048
IC50 Fold Change (HIV; PANEL 35, M41L + T215Y): 2.74
IC50 Fold Change (HIV; PANEL 37, M41L + T215Y + M184V): >87.6048
IC50 Fold Change (HIV; PANEL 38, M41L + L210W + T215Y): 3.70
IC50 Fold Change (HIV; PANEL 39, M41L + L210W + T215Y): 1.89
IC50 Fold Change (HIV; PANEL 40, M41L + L210W + T215Y + M184V): >87.6048
IC50 Fold Change (HIV; PANEL 41, M41L + L210W + T215Y + M184V): >87.6048
IC50 Fold Change (HIV; PANEL 42, D67N + K70R): 2.87
IC50 Fold Change (HIV; PANEL 44, D67N + K70R + T215F + K219E + M184V): >87.6048
IC50 Fold Change (HIV; PANEL 45, L210W + T215Y): 2.29
IC50 Fold Change (HIV; PANEL 46, D67N + K70E): 2.97
IC50 Fold Change (HIV; PANEL 47, D67N + K70E + M184V): >87.6048
IC50 Fold Change (HIV; PANEL 48, K70E + M184V): >87.6048
Antagonism Volume, Result 1 (HIV-1IIIB): 0 nM^2 %, μM^2 % or nMμM %
Antagonism Volume, Result 2 (HIV-1IIIB): 0 nM^2 %, μM^2 % or nMμM %
Antagonism Volume, Result 3 (HIV-1IIIB): 0 nM^2 %, μM^2 % or nMμM %
Mean Antagonism Volume (n = 3) (HIV-1IIIB): 0 nM^2 %, μM^2 % or nMμM %
Mean Synergy Volume (n = 3) (HIV-1IIIB): 72.5 nM^2 %, μM^2 % or nMμM %
Synergy Volume, Result 1 (HIV-1IIIB): 61.5 nM^2 %, μM^2 % or nMμM %
Synergy Volume, Result 2 (HIV-1IIIB): 72.0 nM^2 %, μM^2 % or nMμM %
Synergy Volume, Result 3 (HIV-1IIIB): 84.1 nM^2 %, μM^2 % or nMμM %
Interpretation of Antiviral Results (MacSynergy) (HIV-1IIIB; two-drug combination (with CMX157; control d4T/RBV), CEM-SS cells, listed as emtricitabine): slightly synergistic

Cc1cn([C@H]2C[C@H](N=[N+]=[N-])[C@@H](CO)O2)c(=O)[nH]c1=O [ZDV, 3′-azido-2′,3′-dideoxythymdine]
IC50 (HIV; [1]): 17 nM
IC50 (HIV; [2]): 9560 nM
IC50 (HIV; [3]): 1610 nM
IC50 (HIV; [4]): 17 nM
IC50 (HIV; [5]): > 25000 nM
IC50 (HIV; [6]): 8710 nM
IC50 (HIV; [7]): 12 nM
IC50 (HIV; [8]): 11 nM
IC50 (HIV; [9]): 11 nM
IC50 (HIV; [10]): 6 nM
IC50 (HIV; [11]): 2540 nM
IC50 (HIV; [12]): 4180 nM
IC50 (HIV; [13]): 14 nM
IC50 (HIV; [14]): 9 nM
IC50 (HIV; [15]): 14 nM
IC50 (HIV; [16]): 1050 nM
IC50 (HIV; [17]): 71 nM
IC50 (HIV; [18]): 557 nM
IC50 (HIV; [19]): 177 nM
IC50 (HIV; [20]): 2720 nM
IC50 (HIV; [21]): 2680 nM
IC50 (HIV; [22]): 87 nM
IC50 (HIV; [23]): 107 nM
IC50 (HIV; [24]): 770 nM
IC50 (HIV; [25]): 192 nM
IC50 (HIV; [26]): 207 nM
IC50 (HIV; [27]): 6 nM
IC50 (HIV; [28]): 4 nM
IC50 (HIV; [29]): 4 nM
Antagonism Volume, Result 1 (HIV-1IIIB): −67.8 nM^2 %, μM^2 % or nMμM %
Antagonism Volume, Result 2 (HIV-1IIIB): 0 nM^2 %, μM^2 % or nMμM %
Antagonism Volume, Result 3 (HIV-1IIIB): −0.77 nM^2 %, μM^2 % or nMμM %
Mean Antagonism Volume (n = 3) (HIV-1IIIB): −21.7 nM^2 %, μM^2 % or nMμM %
Mean Synergy Volume (n = 3) (HIV-1IIIB): 11.5 nM^2 %, μM^2 % or nMμM %
Synergy Volume, Result 1 (HIV-1IIIB): 5.01 nM^2 %, μM^2 % or nMμM %
Synergy Volume, Result 2 (HIV-1IIIB): 32.7 nM^2 %, μM^2 % or nMμM %
Synergy Volume, Result 3 (HIV-1IIIB): 0 nM^2 %, μM^2 % or nMμM %
